This note sets out measurements from patent publication US8759535B2, “Substituted fused imidazole derivatives, pharmaceutical compositions, and methods of use thereof” (High Point Pharmaceuticals, LLC, priority 2010, dated 2014).

Where a name gives a salt, the structure may show the parent alone.

The fold induction is the ratio of treated to control signal.

The first assay concerns HMOX1. Kind of assay: HMOX1 Protein Assay (immunostaining of HO-1 in NHLF cells, GE InCell 1000). In kind it is cell-based. The conditions noted are these: Homo sapiens, fold change above DMSO treated cells, 3 μM compound (asterisk), 16 h. In outline: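 NHLF cells seeded overnight in FGM-2, then exposed to compound or DMSO vehicle for 16 h, fixed, and immunostained for HO-1 with Hoechst nuclear counterstain; imaged on InCell 1000. Values are fold change over DMSO-treated cells, generally at 5 μM (0.8% DMSO), with asterisked entries at 3 μM.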
`C[C@H](O)CNC(=O)c1ccc2c(c1)nc(Nc1nc3ccc(Cl)cc3s1)n2C` [Example 204, 2-(6-Chloro-benzothiazol-2-ylamino)-1-methyl-1H-benzoimidazole-5-carboxylic acid ((S)-2-hydroxy-propyl)-amide] gave a fold induction at 3 µM of 19.3.

In the case of `C[C@H](O)CNC(=O)c1ccc2c(c1)nc(Nc1nc3ccc(C(F)(F)F)cc3s1)n2C` [Example 206, 1-Methyl-2-(6-trifluoromethyl-benzothiazol-2-ylamino)-1H-benzoimidazole-5-carboxylic acid ((S)-2-hydroxy-propyl)-amide], the fold induction at 3 µM stood at 27.

Regarding `CCN(CC)CCCNC(=O)c1ccc2c(c1)nc(Nc1nc3ccc(OC(F)(F)F)cc3s1)n2C` [Example 351, 1-Methyl-2-(6-trifluoromethoxy-benzothiazol-2-ylamino)-1H-benzoimidazole-5-carboxylic acid (3-diethylamino-propyl)-amide], the fold induction at 3 µM came out at 25.

The compound `CCN(CC)CCCNC(=O)c1ccc2c(c1)nc(Nc1nc3ccc(Cl)cc3s1)n2C` [Example 352, 2-(6-Chloro-benzothiazol-2-ylamino)-1-methyl-1H-benzoimidazole-5-carboxylic acid (3-diethylamino-propyl)-amide] displayed a fold induction at 3 µM of 20.

Compound `Cn1c(Nc2nc3ccc(Cl)cc3s2)nc2cc(C(=O)NCCCCN)ccc21` [Example 347, 2-(6-Chloro-benzothiazol-2-ylamino)-1-methyl-1H-benzoimidazole-5-carboxylic acid (4-amino-butyl)-amide hydrochloride] returned a fold induction at 3 µM of 15.3.

The compound `COC(C)(C)CNC(=O)c1ccc2c(c1)nc(Nc1nc3ccc(Cl)cc3s1)n2C` [Example 207, 2-(6-Chloro-benzothiazol-2-ylamino)-1-methyl-1H-benzoimidazole-5-carboxylic acid (2-methoxy-2-methyl-propyl)-amide] came in with a fold induction at 3 µM of 11.8.

`Cn1c(Nc2nc3ccc(C(F)(F)F)cc3s2)nc2cc(C(=O)NCC(=O)N3CCC(O)CC3)ccc21` [Example 437, 1-Methyl-2-(6-trifluoromethyl-benzothiazol-2-ylamino)-1H-benzoimidazole-5-carboxylic acid [2-(4-hydroxy-piperidin-1-yl)-2-oxo-ethyl]-amide] showed a fold induction at 3 µM of 47.1.

`CN1CCN(CCCNC(=O)c2ccc3c(c2)nc(Nc2nc4ccc(C(F)(F)F)cc4s2)n3C)CC1` [Example 357, 1-Methyl-2-(6-trifluoromethyl-benzothiazol-2-ylamino)-1H-benzoimidazole-5-carboxylic acid [3-(4-methyl-piperazin-1-yl)-propyl]-amide]: the fold induction at 3 µM is 22.

The assay is the same for the next values; noted with them: Homo sapiens, fold change above DMSO treated cells, 5 μM compound, 16 h.
`Cn1c(Nc2nc3ccc(OC(F)(F)F)cc3s2)nc2cc(C(=O)NCCN3CCCC(O)C3)ccc21` (centres unmarked) [Example 193, 1-Methyl-2-(6-trifluoromethoxy-benzothiazol-2-ylamino)-1H-benzoimidazole-5-carboxylic acid [2-(3-hydroxy-piperidin-1-yl)ethyl]-amide] showed a fold induction at 5 µM of 11.1.

With `Cn1c(Nc2nc3ccc(OC(F)(F)F)cc3s2)nc2cc(C(=O)NCC3CC3)ccc21` [Example 5, 1-Methyl-2-(6-trifluoromethoxy-benzothiazol-2-ylamino)-1H-benzoimidazole-5-carboxylic acid cyclopropylmethyl-amide], the fold induction at 5 µM was determined as 8.33.

With `CN(C)CC(=O)N1CCC[C@@H](NC(=O)c2ccc3c(c2)nc(Nc2nc4ccc(Cl)cc4s2)n3C)C1` [Example 311, 2-(6-Chloro-benzothiazol-2-ylamino)-1-methyl-1H-benzoimidazole-5-carboxylic acid [(R)-1-(2-dimethylamino-acetyl)-piperidin-3-yl]-amide], the fold induction at 5 µM worked out at 77.3.

Consider `CCOCCNC(=O)c1ccc2c(c1)nc(Nc1nc3ccc(OC(F)(F)F)cc3s1)n2CC` [Example 157, 1-Ethyl-2-(6-trifluoromethoxy-benzothiazol-2-ylamino)-1H-benzoimidazole-5-carboxylic acid (2-ethoxy-ethyl)-amide], for which the fold induction at 5 µM came to 22.1.

Turning to `CN(C)C(=O)[C@H](CO)NC(=O)c1ccc2c(c1)nc(Nc1nc3ccc(OC(F)(F)F)cc3s1)n2C` [Example 368, 1-Methyl-2-(6-trifluoromethoxy-benzothiazol-2-ylamino)-1H-benzoimidazole-5-carboxylic acid ((S)-1-dimethylcarbamoyl-2-hydroxy-ethyl)-amide], the fold induction at 5 µM amounted to 48.

`Cn1c(Nc2nc3ccc(Cl)cc3s2)nc2cc(C(=O)N[C@@H]3CCNC3)ccc21` [Example 290, 2-(6-Chloro-benzothiazol-2-ylamino)-1-methyl-1H-benzoimidazole-5-carboxylic acid (R)-pyrrolidin-3-ylamide hydrochloride] yielded a fold induction at 5 µM of 22.5.

Regarding `Cn1c(Nc2nc3ccc(OC(F)(F)F)cc3s2)nc2cc(C(=O)NCC(=O)N3CCCC(O)C3)ccc21` (centres unmarked) [Example 431, 1-Methyl-2-(6-trifluoromethoxy-benzothiazol-2-ylamino)-1H-benzoimidazole-5-carboxylic acid [2-(3-hydroxy-piperidin-1-yl)-2-oxo-ethyl]-amide], the fold induction at 5 µM is 49.4.

As to `COc1cc2c(cc1C(=O)NCC(C)O)nc(Nc1nc3ccc(OC(F)(F)F)cc3s1)n2C` (centres unmarked) [Example 68, 6-Methoxy-1-methyl-2-(6-trifluoromethoxy-benzothiazol-2-ylamino)-1H-benzoimidazole-5-carboxylic acid (2-hydroxy-propyl)-amide], the fold induction at 5 µM was determined as 21.1.

Consider `CCNC(=O)c1ccc2c(c1)nc(Nc1nc3cc(F)c(F)cc3s1)n2C` [Example 35, 2-(5,6-Difluoro-benzothiazol-2-ylamino)-1-methyl-1H-benzoimidazole-5-carboxylic acid ethylamide], for which the fold induction at 5 µM was 12.4.

As to `Cn1c(Nc2nc3ccc(OC(F)(F)F)cc3s2)nc2ccc(-c3nc[nH]n3)cc21` [Example 197, [1-Methyl-6-(1H-1,2,4-triazol-3-yl)-1H-benzimidazol-2-yl]-(6-trifluoromethoxy-benzothiazol-2-yl)-amine], the fold induction at 5 µM is 18.

In turn, `Cn1c(Nc2nc3c(Cl)cccc3s2)nc2cc(C(=O)NCCOCCN)ccc21` [Example 270, 2-(4-Chloro-benzothiazol-2-ylamino)-1-methyl-1H benzoimidazole-5-carboxylic acid [2-(2-amino-ethoxy)-ethyl]-amide] gave a fold induction at 5 µM of 14.6.

`COC(=O)CCNC(=O)c1ccc2c(c1)nc(Nc1nc3ccc(OC(F)(F)F)cc3s1)n2C` [Example 97, 3-{[1-Methyl-2-(6-trifluoromethoxy-benzothiazol-2-ylamino)-1H-benzoimidazole-5-carbonyl]-amino}-propionic acid methyl ester]: the fold induction at 5 µM turned out to be 19.2.

In turn, `COCCn1c(Nc2nc3ccc(OC(F)(F)F)cc3s2)nc2cc(C(=O)O)ccc21` [Example 166, 1-(2-Methoxy-ethyl)-2-(6-trifluoromethoxy-benzothiazol-2-ylamino)-1H-benzoimidazole-5-carboxylic acid] came in with a fold induction at 5 µM of 22.4.

Consider `CCN(CC)c1cc2c(cc1C(=O)NCCN1CCOCC1)nc(Nc1nc3ccc(OC(F)(F)F)cc3s1)n2C` [Example 362, 6-Diethylamino-1-methyl-2-(6-trifluoromethoxy-benzothiazol-2-ylamino)-1H-benzoimidazole-5-carboxylic acid (2-morpholin-4-yl-ethyl)-amide], for which the fold induction at 5 µM was determined as 13.

`C[C@@H](CO)CCNC(=O)c1ccc2c(c1)nc(Nc1nc3ccc(OC(F)(F)F)cc3s1)n2C` [Example 223, 1-Methyl-2-(6-trifluoromethoxy-benzothiazol-2-ylamino)-1H-benzoimidazole-5-carboxylic acid ((R)-4-hydroxy-3-methyl-butyl)-amide] showed a fold induction at 5 µM of 44.7.

The compound `Cn1c(Nc2nc3ccc(OC(F)(F)F)cc3s2)nc2cc(C(=O)NC[C@@H](O)CO)ccc21` [Example 281, 1-Methyl-2-(6-trifluoromethoxy-benzothiazol-2-ylamino)-1H-benzoimidazole-5-carboxylic acid ((R)-2,3-dihydroxy-propyl)-amide] had a fold induction at 5 µM of 35.6.

For `COC(=O)c1cc2nc(Nc3nc4ccc(OC(F)(F)F)cc4s3)n(C)c2cc1F` [Example 40, 6-Fluoro-1-methyl-2-(6-trifluoromethoxy-benzothiazol-2-ylamino)-1H-benzoimidazole-5-carboxylic acid methyl ester], the fold induction at 5 µM was 11.8.

For `COCCn1c(Nc2nc3ccc(Cl)cc3s2)nc2cc(C(=O)NC3CCN(CCO)CC3)ccc21` [Example 301, 2-(6-Chloro-benzothiazol-2-ylamino)-1-(2-methoxy-ethyl)-1H-benzoimidazole-5-carboxylic acid [1-(2-hydroxy-ethyl)-piperidin-4-yl]-amide], the fold induction at 5 µM was 27.8.

Turning to `COC(C)(C)CNC(=O)c1ccc2c(c1)nc(Nc1nc3ccc(OC(F)(F)F)cc3s1)n2C` [Example 22, 1-Methyl-2-(6-trifluoromethoxy-benzothiazol-2-ylamino)-1H-benzoimidazole-5-carboxylic acid (2-methoxy-2-methyl-propyl)-amide], the fold induction at 5 µM came to 18.7.

Regarding `CCn1c(Nc2nc3ccc(Cl)cc3s2)nc2cc(C(=O)NCC(C)(C)OC)ccc21` [Example 178, 2-(6-Chloro-benzothiazol-2-ylamino)-1-ethyl-1H-benzoimidazole-5-carboxylic acid (2-methoxy-2-methyl-propyl)-amide], the fold induction at 5 µM was 25.7.

In turn, `Cn1c(Nc2nc3ccc(Cl)cc3s2)nc2cc(C(=O)NCCNCCF)ccc21` [Example 279, 2-(6-Chloro-benzothiazol-2-ylamino)-1-methyl-1H-benzoimidazole-5-carboxylic acid [2-(2-fluoro-ethylamino)-ethyl]-amide hydrochloride] gave a fold induction at 5 µM of 89.2.
